One series has as its system interferon (α). The series can be described thus: Cytokine Induction in Human Cells: interferon (α) by ELISA. Format: cell-based. To be noted: PBMC; human PBMCs, incubated 18 to 24 hours, lowest concentration found to induce interferon. From the text: (§1) An in vitro human blood cell system was used to assess cytokine induction by compounds of the invention. Activity is based on the measurement of interferon and tumor necrosis factor (α) (IFN and TNF, respectively) secreted into culture media as described by Testerman et. al. In “Cytokine Induction by the Immunomodulators Imiquimod and S-27609”, Journal of Leukocyte Biology, 58, 365–372 (September, 1995).
(§2) Whole blood is collected by venipuncture into EDTA vacutainer tubes from healthy human donors. Peripheral blood mononuclear cells (PBMCs) are separated from whole blood by density gradient centrifugation using Histopaque®-1077 (Sigma Chemicals, St. Louis, Mo.). The PBMCs are suspended at 3–4×10^6 cells/mL in RPMI 1640 medium containing 10% fetal bovine serum, 2 mM L-glutamine and 1% penicillin/streptomycin solution (RPMI complete). The PBMC suspension is added to 48 well flat bottom sterile tissue culture plates (Costar, Cambridge, Mass. or Becton Dickinson Labware, Lincoln Park, N.J.) containing an equal volume of RPMI complete media containing test compound.
(§3) The compounds are solubilized in dimethyl sulfoxide (DMSO). The DMSO concentration should not exceed a final concentration of 1% for addition to the culture wells.
(§4) The solution of test compound is added at 60 μM to the first well containing RPMI complete and serial (three fold or ten fold) dilutions are made. The PBMC suspension is then added to the wells in an equal volume, bringing the test compound concentrations to the desired range. The final concentration of PBMC suspension is 1.5–2×10^6 cells/mL. The plates are covered with sterile plastic lids, mixed gently and then incubated for 18 to 24 hours at 37° C. in a 5% carbon dioxide atmosphere.
(§5) Following incubation the plates are centrifuged for 5–10 minutes at 1000 rpm (˜200×g) at 4° C. The cell culture supernatant is removed with a sterile polypropylene pipet and transferred to sterile polypropylene tubes. Samples are maintained at −30 to −70° C. until analysis. The samples are analyzed for interferon (α) and tumor necrosis factor (α) by ELISA
Interferon (α) concentration is determined by ELISA using a Human Multi-Species kit from PBL Biomedical Laboratories, New Brunswick, N.J.
(§6) The table below lists the lowest concentration found to induce interferon and the lowest concentration found to induce tumor necrosis factor for each compound.
A general note: An ELISA detects its analyte on a solid surface through an enzyme-linked reagent.

Series [1] concerns tumor necrosis factor (α). The series is described as follows: Cytokine Induction in Human Cells: tumor necrosis factor (α) by ELISA. The format is cell-based. To be noted: PBMC; human PBMCs, incubated 18 to 24 hours, lowest concentration found to induce tumor necrosis factor.
Source text: as §1, §2, §3, §4, §5
Tumor necrosis factor (α) (TNF) concentration is determined using ELISA kits available from Genzyme, Cambridge, Mass.; R&D Systems, Minneapolis, Minn.; or Pharmingen, San Diego, Calif.
as §6

Consider 40 compounds from US7157453B2, “Urea substituted imidazoquinolines” (3M Innovation Properties Company, priority 1999, dated 2007).

Molecules are shown by their SMILES. Counter-ions that a name gives are not always drawn.

Take `Nc1nc2ccccc2c2c1ncn2CCCCNC(=O)Oc1ccc2ccccc2c1`: the melting point was in the range of 154 to 155 °C.
`Nc1nc2ccccc2c2c1nc(CCCOc1ccccc1)n2CCCNC(=O)N1CCOCC1` [Example 166, N-{3-[4-amino-2-(3-phenoxypropyl)-1H-imidazo[4,5-c]quinolin-1-yl]propyl}morpholine-4-carboxamide] had a melting point of 198.8 to 199.9 °C.
On the same count and under the same terms, with `COc1ccc(Cc2nc3c(N)nc4ccccc4c3n2CCCCNC(N)=O)cc1` [Example 10, N-{4-[4-Amino-2-(4-methoxybenzyl)-1H-imidazo[4,5-c]quinolin-1-yl]butyl}urea] the figure was 196 °C (dec.).
In turn, `Nc1nc2ccccc2c2c1nc(-c1ccccc1)n2CCCCNC(=O)Nc1ccc(F)cc1` [Example 15, N-[4-(4-amino-2-phenyl-1H-imidazo[4,5-c]quinolin-1-yl)butyl]-N′-(4-fluorophenyl)urea] came in with a melting point of 145 to 150 °C.
Still for that read-out and setting: the figure for `Nc1nc2ccccc2c2c1ncn2CCCCNC(=O)Oc1cccc2ccccc12` is 89 to 92 °C.
As for `CCCCCc1nc2c(N)nc3c(c2n1CCCCNC(=O)N1CCOCC1)CCCC3` (as salt: hydrochloride) [Example 172, N-[4-(4-amino-2-pentyl-6,7,8,9-tetrahydro-1H-imidazo[4,5-c]quinolin-1-yl)butyl]morpholine-4-carboxamide hydrochloride], the melting point lay in the range of 126.8 to 127.5 °C.
Regarding `Nc1nc2ccccc2c2c1ncn2CCCCNC(=O)Nc1ccccc1[N+](=O)[O-]` [Example 41], the minimal effective concentration was found to be 1.11 µM in the series on interferon (α) and 10 µM in series [1].
As for `CSc1ccc(NC(=O)NCCCCn2cnc3c(N)nc4ccccc4c32)cc1` [Example 47], the minimal effective concentration worked out at 3.33 µM in the series with interferon (α) and 10 µM in series [1].
In the case of `CC(C)c1ccc(NC(=O)NCCCCn2cnc3c(N)nc4ccccc4c32)cc1` [Example 27], the minimal effective concentration (in the series on interferon (α); in series [1]) was over 30 µM each time.
Regarding `Nc1nc2ccccc2c2c1ncn2CCCCNC(=O)Nc1cc(C(F)(F)F)cc(C(F)(F)F)c1` [Example 23], the minimal effective concentration is over 30 µM in the series on interferon (α) and 10 µM in series [1].
For `COCCc1nc2c(N)nc3ccccc3c2n1CCCNC(=O)Nc1ccccc1` [Example 161, N-{3-[4-amino-2-(2-methoxyethyl)-1H-imidazo[4,5-c]quinolin-1-yl]propyl}-N′-phenylurea], the minimal effective concentration (in the series on interferon (α); in series [1]) was 0.01 µM throughout.
With `CCCCc1nc2c(N)nc3ccccc3c2n1CCCCNC(=O)Nc1ccccc1Cl` [Example 86], the minimal effective concentration in the series with interferon (α) came out at 0.1 µM; in series [1], 1 µM.
In the case of `Cc1cc(C)c(NC(=O)NCCCCn2cnc3c(N)nc4ccccc4c32)cc1C` [Example 38], the minimal effective concentration (in the series with interferon (α); in series [1]) was over 30 µM each time.
Regarding `CCCCNC(=O)NCCCCn1c(CCOC)nc2c(N)nc3ccccc3c21` [Example 103], the minimal effective concentration stood at 0.0001 µM in the series with interferon (α) and 0.1 µM in series [1].
As to `COCCc1nc2c(N)nc3c(c2n1CCCCNC(=O)N1CCOCC1)CCCC3` [Example 135], the minimal effective concentration with interferon (α) was 0.01 µM; in series [1], 10 µM.
For `CCCCc1nc2c(N)nc3c(c2n1CCCCNC(=O)NC12CC4CC(CC(C4)C1)C2)CCCC3` [Example 132], the minimal effective concentration turned out to be 0.01 µM in the series with interferon (α) and 1 µM in series [1].
For `CCCCc1nc2c(N)nc3ccccc3c2n1CCNC(=O)NCc1ccccc1` [Example 55], the minimal effective concentration (with interferon (α); in series [1]) was 1 µM each time.
For `CCCCc1nc2c(N)nc3ccccc3c2n1CCCCNC(=O)NCc1cccc(C)c1` [Example 83], the minimal effective concentration is 0.1 µM in the series with interferon (α) and 1 µM in series [1].
With `COCCc1nc2c(N)nc3ccccc3c2n1CCCCNC(=O)N1CCOCC1` [Example 121], the values for the minimal effective concentration (with interferon (α); in series [1]) were 0.01 µM and 10 µM, respectively.
For the compound `CCCCc1nc2c(N)nc3ccccc3c2n1CCCCNC(=O)NCCC` [Example 71], the minimal effective concentration with interferon (α) is 0.001 µM; in series [1], 1 µM.
`COCCc1nc2c(N)nc3ccccc3c2n1CCCCNC(=O)Nc1cccc(C(F)(F)F)c1` [Example 116]: the minimal effective concentration in the series with interferon (α) amounted to 0.0001 µM; in series [1], 1 µM.
As to `Nc1nc2ccccc2c2c1ncn2CCCCNC(=O)Nc1cc(Cl)cc(Cl)c1` [Example 29], the minimal effective concentration with interferon (α) is over 30 µM; in series [1], 10 µM.
In the case of `COc1ccc(NC(=O)NCCCCn2cnc3c(N)nc4ccccc4c32)cc1` [Example 37], the minimal effective concentration in the series with interferon (α) came to 1.11 µM; in series [1], 10 µM.
The matching figures for `CCCCc1nc2c(N)nc3c(c2n1CCCCNC(=O)NCc1ccccc1)CCCC3` [Example 133]: 0.1 µM and 10 µM.
With `COCCc1nc2c(N)nc3ccccc3c2n1CCCCNC(=O)Nc1ccc(Cl)cc1` [Example 113], the minimal effective concentration in the series with interferon (α) was 0.0001 µM; in series [1] it was 1 µM.
As for `COCCc1nc2c(N)nc3ccccc3c2n1CCCCNC(=O)NC12CC3CC(CC(C3)C1)C2` [Example 100], the minimal effective concentration with interferon (α) was found to be 0.001 µM; in series [1], 10 µM.
The like results for `CC(C)NC(=O)NCCCCn1cnc2c(N)nc3ccccc3c21` [Example 19] were, in that order, 1.11 µM and 30 µM.
Consider `COCCc1nc2c(N)nc3ccccc3c2n1CCCCNC(=O)Nc1ccccc1Br` [Example 119], for which the minimal effective concentration (in the series with interferon (α); in series [1]) was 10 µM in each case.
Turning to `CC(C)c1cccc(C(C)C)c1NC(=O)NCCCCn1cnc2c(N)nc3ccccc3c21` [Example 24], the minimal effective concentration (in the series on interferon (α); in series [1]) was over 30 µM in each case.
`CCCCc1nc2c(N)nc3ccccc3c2n1CCCCNC(=O)Nc1ccccc1OC` [Example 85]: the minimal effective concentration with interferon (α) was 0.001 µM; in series [1], 0.1 µM.
For `COC(=O)c1ccccc1NC(=O)NCCCCn1cnc2c(N)nc3ccccc3c21` [Example 43], the minimal effective concentration (with interferon (α); in series [1]) was over 30 µM throughout.
On to `Nc1nc2ccccc2c2c1ncn2CCCCNC(=O)NCCc1ccccc1` [Example 36], for which the minimal effective concentration came out at 1.11 µM in the series on interferon (α) and 10 µM in series [1].
In the case of `COCCc1nc2c(N)nc3c(c2n1CCCCNC(=O)Nc1ccccc1)CCCC3` [Example 136], the minimal effective concentration turned out to be 0.0001 µM with interferon (α) and 1 µM in series [1].
Regarding `CCCCc1nc2c(N)nc3ccccc3c2n1CCCCNC(=O)NCc1ccc(OC)cc1` [Example 89], the minimal effective concentration in the series with interferon (α) is 0.1 µM; in series [1] it was 10 µM.
Consider `COCCc1nc2c(N)nc3ccccc3c2n1CCCCNC(=O)Nc1cccc([N+](=O)[O-])c1` [Example 114], for which the figures for the minimal effective concentration (in the series with interferon (α); in series [1]) were 0.0001 µM and 0.01 µM, respectively.
The matching figures for `COCCc1nc2c(N)nc3ccccc3c2n1CCCCNC(=O)Nc1ccc(C(F)(F)F)cc1` [Example 117]: 10 µM and 10 µM.
Take `Nc1nc2ccccc2c2c1ncn2CCCCNC(=O)Nc1cc(C(F)(F)F)ccc1Cl` [Example 31]: the minimal effective concentration was over 30 µM in the series with interferon (α) and 10 µM in series [1].
The like results for `CCCCOC(=O)c1ccc(NC(=O)NCCCCn2cnc3c(N)nc4ccccc4c32)cc1` [Example 50] were, in that order, over 30 µM and over 30 µM.
Consider `CCCCc1nc2c(N)nc3ccccc3c2n1CCCNC(=O)Nc1ccccc1` [Example 146, N-[3-(4-amino-2-butyl-1H-imidazo[4,5-c]quinolin-1-yl)propyl]-N′-phenylurea], for which the minimal effective concentration was found to be 0.01 µM in the series with interferon (α) and 0.12 µM in series [1].
As to `CCOc1ccccc1NC(=O)NCCCCn1cnc2c(N)nc3ccccc3c21` [Example 44], the minimal effective concentration with interferon (α) is 1.11 µM; in series [1] it was 10 µM.

As usually defined, the melting point is the temperature, or range, at which the solid turns liquid. One may read the minimal effective concentration as the lowest level tested that produced the effect sought. A higher minimal effective concentration goes with a need for much substance.
